# From US20260200897A1, “4-((5-(3-(4-(PYRIDIN-2-YL)CYCLOPENTYL)-1H-PYRAZOL-3-YL)AMINO)-BENZENESULFONAMIDE DERIVATIVES AND SIMILAR COMPOUNDS AS CDK INHIBITORS FOR THE TREATMENT OF CANCER” (BeOne Medicines I GmbH, priority 2023, published 2026)
# Experiments:
# [1] = target: CDK1/Cyclin B1 (Homo sapiens, UniProt P06493); assay: CDK1/Cyclin B1 TR-FRET biochemical assay, 1 mM ATP; conditions: 0.15 μM Rb (Ser780)-biotin substrate, 90 min reaction, Table 2
# [2] = target: CDK2/Cyclin E1 (Homo sapiens, UniProt P24941); assay: CDK2/Cyclin E1 TR-FRET biochemical assay, 1 mM ATP; conditions: 0.15 μM Rb (Ser780)-biotin substrate, 90 min reaction, Table 2
# CDK1/Cyclin B1, sequence (P06493 whole entry): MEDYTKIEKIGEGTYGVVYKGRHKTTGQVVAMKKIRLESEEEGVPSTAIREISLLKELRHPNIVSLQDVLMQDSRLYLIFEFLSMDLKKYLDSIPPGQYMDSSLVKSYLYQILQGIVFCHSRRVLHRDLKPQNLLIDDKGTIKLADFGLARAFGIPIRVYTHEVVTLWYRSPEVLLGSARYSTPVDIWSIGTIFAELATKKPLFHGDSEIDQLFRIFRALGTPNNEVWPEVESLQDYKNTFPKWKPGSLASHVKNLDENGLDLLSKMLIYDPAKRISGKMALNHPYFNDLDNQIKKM
# CDK1/Cyclin B1, sequence (P14635 whole entry partner): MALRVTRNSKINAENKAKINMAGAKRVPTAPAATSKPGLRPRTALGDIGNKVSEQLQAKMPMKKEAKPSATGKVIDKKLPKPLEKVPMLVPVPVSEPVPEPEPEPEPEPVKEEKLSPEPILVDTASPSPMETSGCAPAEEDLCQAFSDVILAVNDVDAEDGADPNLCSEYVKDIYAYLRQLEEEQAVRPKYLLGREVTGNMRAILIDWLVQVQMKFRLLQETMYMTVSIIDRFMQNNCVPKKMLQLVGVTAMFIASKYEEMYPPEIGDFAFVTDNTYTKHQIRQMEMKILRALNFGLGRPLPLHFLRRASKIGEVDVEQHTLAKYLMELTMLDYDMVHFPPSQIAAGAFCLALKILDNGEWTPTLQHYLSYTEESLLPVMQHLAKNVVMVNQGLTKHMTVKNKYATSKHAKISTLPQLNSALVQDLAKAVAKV
Compound,IC50 [1] [µM],IC50 [2] [µM]
"CC(C)(C)c1cccc(C2CCC(c3cc(Nc4ccc5c(c4F)CNS5(=O)=O)n[nH]3)C2)c1 (centres unmarked) [Example 132, 5-((5-(3-(3-(tert-butyl)phenyl)cyclopentyl)-1H-pyrazol-3-yl)amino)-4-fluoro-2,3-dihydrobenzo[d]isothiazole 1,1-dioxide]",> 10,> 10
"COC(=O)c1nc(C2CCC(c3cc(Nc4ccc5c(c4F)CNS5(=O)=O)n[nH]3)C2)oc1C(C)(C)C (centres unmarked) [Example 113, methyl 5-(tert-butyl)-2-(3-(3-((4-fluoro-1,1-dioxido-2,3-dihydrobenzo[d]isothiazol-5-yl)amino)-1H-pyrazol-5-yl)cyclopentyl)oxazole-4-carboxylate]",> 10,0.235
"CC(C)c1ncc(C2CCC(c3cc(Nc4ccc5c(c4F)CNS5(=O)=O)n[nH]3)C2)o1 (centres unmarked) [Example 105, 4-fluoro-5-((5-(3-(2-isopropyloxazol-5-yl)cyclopentyl)-1H-pyrazol-3-yl)amino)-2,3-dihydrobenzo[d]isothiazole 1,1-dioxide]",> 10,0.812
"CC(C)c1ccnc(C2CCC(c3cc(Nc4ccc5c(c4F)CNS5(=O)=O)n[nH]3)C2)c1 (centres unmarked) [Example 122, 4-fluoro-5-((5-(3-(4-isopropylpyridin-2-yl)cyclopentyl)-1H-pyrazol-3-yl)amino)-2,3-dihydrobenzo[d]isothiazole 1,1-dioxide]",> 10,0.072
"CC(C)(C)c1cc(C2CCC(c3cc(Nc4ccc5c(c4F)CNS5(=O)=O)n[nH]3)C2)[nH]n1 (centres unmarked) [Example 100, 5-((5-(3-(3-(tert-butyl)-1H-pyrazol-5-yl)cyclopentyl)-1H-pyrazol-3-yl)amino)-4-fluoro-2,3-dihydrobenzo[d]isothiazole 1,1-dioxide]",> 10,0.173
"CC(C)(C)c1cc(C2CCC(c3cc(Nc4ccc5c(c4F)CS(=O)(=O)N5)n[nH]3)C2)ccn1 (centres unmarked) [Example 161, 5-((5-(3-(2-(tert-butyl)pyridin-4-yl)cyclopentyl)-1H-pyrazol-3-yl)amino)-4-fluoro-1,3-dihydrobenzo[c]isothiazole 2,2-dioxide]",> 10,1.06
"NS(=O)(=O)c1ccc(Nc2cc(C3CCC(c4ncc(C5CC5)o4)C3)[nH]n2)c(F)c1 (centres unmarked) [Example 9, 4-((5-(3-(5-cyclopropyloxazol-2-yl)cyclopentyl)-1H-pyrazol-3-yl)amino)-3-fluorobenzenesulfonamide]",> 10,0.131
"CC(C)(C)c1ccc([C@@H]2CC[C@H](c3cc(Nc4ccc5c(c4F)CNS5(=O)=O)n[nH]3)C2)o1 (relative stereo) [Example 107, cis-5-((5-(3-(5-(tert-butyl)furan-2-yl)cyclopentyl)-1H-pyrazol-3-yl)amino)-4-fluoro-2,3-dihydrobenzo[d]isothiazole 1,1-dioxide]",> 10,2.44
"CC(C)(C)c1ccc(C2CCC(c3cc(Nc4cc5c(cc4F)S(=O)(=O)NC5)n[nH]3)C2)nc1 (centres unmarked) [Example 10, 5-((3-(3-(5-(tert-butyl)pyridin-2-yl)cyclopentyl)-1H-pyrazol-5-yl)amino)-6-fluoro-2,3-dihydrobenzo[d]isothiazole 1,1-dioxide]",> 10,> 10
"C=C(C)c1cc(C2CCC(c3cc(Nc4ccc5c(c4F)CS(=O)(=O)N5)n[nH]3)C2)n[nH]1 (centres unmarked) [Example 151, 4-fluoro-5-((5-(3-(5-(prop-1-en-2-yl)-1H-pyrazol-3-yl)cyclopentyl)-1H-pyrazol-3-yl)amino)-1,3-dihydrobenzo[c]isothiazole 2,2-dioxide]",> 10,1.4
"Cc1cc(C(C)(C)C)cc(C2CCC(c3cc(Nc4ccc(S(N)(=O)=O)cc4F)n[nH]3)C2)n1 (centres unmarked) [Example 2, 4-((5-(3-(4-(tert-butyl)-6-methylpyridin-2-yl)cyclopentyl)-1H-pyrazol-3-yl)amino)-3-fluorobenzenesulfonamide]",> 10,5.68
"Cc1nc(C2CCC(c3cc(Nc4cc5c(cc4F)S(=O)(=O)NC5)n[nH]3)C2)oc1C(C)(C)C (centres unmarked) [Example 19, 5-((5-(3-(5-(tert-butyl)-4-methyloxazol-2-yl)cyclopentyl)-1H-pyrazol-3-yl)amino)-6-fluoro-2,3-dihydrobenzo[d]isothiazole 1,1-dioxide]",> 10,0.043
"Cc1nc(C2CCC(c3cc(Nc4ccc(S(N)(=O)=O)cc4F)n[nH]3)C2)oc1C(C)(C)C (centres unmarked) [Example 8, 4-((5-(3-(5-(tert-butyl)-4-methyloxazol-2-yl)cyclopentyl)-1H-pyrazol-3-yl)amino)-3-fluorobenzenesulfonamide]",> 10,0.079
"CC(C)(C)c1nnc([C@H]2CC[C@H](c3cc(Nc4ccc5c(c4F)CNS5(=O)=O)n[nH]3)C2)o1 (relative stereo) [Example 97, trans-5-((5-(3-(5-(tert-butyl)-1,3,4-oxadiazol-2-yl)cyclopentyl)-1H-pyrazol-3-yl)amino)-4-fluoro-2,3-dihydrobenzo[d]isothiazole 1,1-dioxide]",> 10,3.18
"CC(C)(C)c1cnc(C2CCC(c3cc(Nc4ccc5c(c4F)CNS5(=O)=O)n[nH]3)C2)[nH]1 (centres unmarked) [Example 103, 5-((5-(3-(5-(tert-butyl)-1H-imidazol-2-yl)cyclopentyl)-1H-pyrazol-3-yl)amino)-4-fluoro-2,3-dihydrobenzo[d]isothiazole 1,1-dioxide]",> 10,> 10
"CC(C)(C)c1cncc(C2CCC(c3cc(Nc4ccc5c(c4F)CNS5(=O)=O)n[nH]3)C2)c1 (centres unmarked) [Example 128, 5-((5-(3-(5-(tert-butyl)pyridin-3-yl)cyclopentyl)-1H-pyrazol-3-yl)amino)-4-fluoro-2,3-dihydrobenzo[d]isothiazole 1,1-dioxide]",> 10,1.25
"CC(C)(C)n1ccc(C2CCC(c3cc(Nc4ccc5c(c4F)CNS5(=O)=O)n[nH]3)C2)n1 (centres unmarked) [Example 98, 5-((5-(3-(1-(tert-butyl)-1H-pyrazol-3-yl)cyclopentyl)-1H-pyrazol-3-yl)amino)-4-fluoro-2,3-dihydrobenzo[d]isothiazole 1,1-dioxide]",> 10,0.453

# Next, values leading:
IC50 [1] [µM],IC50 [2] [µM],Compound
> 10,2.02,"CC(C)(C)c1ccc(C2CCC(c3cc(Nc4ccc5c(c4F)CS(=O)(=O)N5)n[nH]3)C2)nc1 (centres unmarked) [Example 156, 5-((5-(3-(5-(tert-butyl)pyridin-2-yl)cyclopentyl)-1H-pyrazol-3-yl)amino)-4-fluoro-1,3-dihydrobenzo[c]isothiazole 2,2-dioxide]"
2.09,0.0039,"CC(C)(C)c1cnc(C2CCC(c3cc(Nc4cc5c(cc4F)S(=O)(=O)NC5)n[nH]3)C2)o1 (single isomer, unassigned) [Example 17a, 5-((5-(3-(5-(tert-butyl)oxazol-2-yl)cyclopentyl)-1H-pyrazol-3-yl)amino)-6-fluoro-2,3-dihydrobenzo[d]isothiazole 1,1-dioxide]"
7.41,0.078,"CC(C)(C)c1coc(C2CCC(c3cc(Nc4ccc5c(c4F)CS(=O)(=O)N5)n[nH]3)C2)n1 (centres unmarked) [Example 148, 5-((5-(3-(4-(tert-butyl)oxazol-2-yl)cyclopentyl)-1H-pyrazol-3-yl)amino)-4-fluoro-1,3-dihydrobenzo[c]isothiazole 2,2-dioxide]"
2.87,0.0086,"CC(C)c1cnc(C2CCC(c3cc(Nc4ccc5c(c4F)CNS5(=O)=O)n[nH]3)C2)o1 (single isomer, unassigned) [Example 109a, 4-fluoro-5-((5-(3-(5-isopropyloxazol-2-yl)cyclopentyl)-1H-pyrazol-3-yl)amino)-2,3-dihydrobenzo[d]isothiazole 1,1-dioxide]"
0.656,0.0046,"CC(C)c1ccnc(C2CCC(c3cc(Nc4ccc(S(N)(=O)=O)cc4F)n[nH]3)C2)n1 (centres unmarked) [Example 5, 3-fluoro-4-((5-(3-(4-isopropylpyrimidin-2-yl)cyclopentyl)-1H-pyrazol-3-yl)amino)benzenesulfonamide]"
4.95,0.06,"CC(C)(C)c1coc(C2CCC(c3cc(Nc4ccc5c(c4)CS(=O)(=O)N5)n[nH]3)C2)n1 (centres unmarked) [Example 136, 5-((5-(3-(4-(tert-butyl)oxazol-2-yl)cyclopentyl)-1H-pyrazol-3-yl)amino)-1,3-dihydrobenzo[c]isothiazole 2,2-dioxide]"
0.848,0.0071,"CC(C)(C)c1ccnc(C2CCC(c3cc(Nc4ccc(S(N)(=O)=O)cc4F)n[nH]3)C2)n1 (centres unmarked) [Example 4, 4-((5-(3-(4-(tert-butyl)pyrimidin-2-yl)cyclopentyl)-1H-pyrazol-3-yl)amino)-3-fluorobenzenesulfonamide]"
0.238,0.0028,"CC(C)c1cnc(C2CCC(c3cc(Nc4ccc5c(c4F)CS(=O)(=O)N5)n[nH]3)C2)o1 (single isomer, unassigned) [Example 152a, cis-4-fluoro-5-((5-(3-(5-isopropyloxazol-2-yl)cyclopentyl)-1H-pyrazol-3-yl)amino)-1,3-dihydrobenzo[c]isothiazole 2,2-dioxide]"
0.54,0.0096,"Cc1nc(C2CCC(c3cc(Nc4ccc5c(c4F)CS(=O)(=O)N5)n[nH]3)C2)oc1C(C)(C)C (centres unmarked) [Example 154, 5-((5-(3-(5-(tert-butyl)-4-methyloxazol-2-yl)cyclopentyl)-1H-pyrazol-3-yl)amino)-4-fluoro-1,3-dihydrobenzo[c]isothiazole 2,2-dioxide]"
0.685,0.0046,"CC(C)(C)c1ccnc(C2CCC(c3cc(Nc4ccc5c(c4F)CS(=O)(=O)N5)n[nH]3)C2)c1 (centres unmarked) [Example 155, 5-((5-(3-(4-(tert-butyl)pyridin-2-yl)cyclopentyl)-1H-pyrazol-3-yl)amino)-4-fluoro-1,3-dihydrobenzo[c]isothiazole 2,2-dioxide]"
0.669,0.0039,"CC(C)c1ccnc(C2CCC(c3cc(Nc4ccc5c(c4F)CNS5(=O)=O)n[nH]3)C2)n1 (centres unmarked) [Example 126, 4-fluoro-5-((5-(3-(4-isopropylpyrimidin-2-yl)cyclopentyl)-1H-pyrazol-3-yl)amino)-2,3-dihydrobenzo[d]isothiazole 1,1-dioxide]"
